Measurements taken from ChEMBL document CHEMBL1201862, “PubChem BioAssay data set” (2004).
Calls of active or inactive are those of the source.

Tests used:
Caspase-7 = Caspase-7 (Homo sapiens, UniProt P55210); assay: human caspase-7 inhibitors, dose response, selectivity assay for caspase-6 inhibitor project, biochemical, DEVD-R110 fluorescence, cherry-pick (AID 743295)
Caspase-6 = target: T1, Caspase-6 (Homo sapiens, UniProt P55212); assay: human caspase-6 inhibitors, dose response, biochemical, VEID-R110 fluorescence, cherry-pick (AID 720632)
T1 sequence (P55212 whole entry): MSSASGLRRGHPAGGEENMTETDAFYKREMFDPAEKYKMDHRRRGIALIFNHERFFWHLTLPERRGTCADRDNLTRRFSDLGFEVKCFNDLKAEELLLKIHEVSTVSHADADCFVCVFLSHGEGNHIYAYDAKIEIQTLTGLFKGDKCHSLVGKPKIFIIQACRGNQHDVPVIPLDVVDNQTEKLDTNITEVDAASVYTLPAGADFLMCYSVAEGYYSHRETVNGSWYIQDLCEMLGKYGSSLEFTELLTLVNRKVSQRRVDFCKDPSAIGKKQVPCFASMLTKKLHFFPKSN

Caspase-8 = Caspase-8 (Homo sapiens, UniProt Q14790); assay: caspase-8 inhibition counter-screen, dose response, selectivity assay for caspase-6 inhibitor project, biochemical, Z-IETD-R110 fluorescence, cherry-picked samples (AID 743294)
[1] = target: T2, Carboxy-terminal domain RNA polymerase II polypeptide A small phosphatase 1 (Homo sapiens, UniProt Q9GZU7); assay: inhibitors of CTDSP1, concentration-response testing, biochemical assay, absorbance-based, actives from ultra-high-throughput screening (AID 540297); type: functional
T2 sequence (Q9GZU7 whole entry): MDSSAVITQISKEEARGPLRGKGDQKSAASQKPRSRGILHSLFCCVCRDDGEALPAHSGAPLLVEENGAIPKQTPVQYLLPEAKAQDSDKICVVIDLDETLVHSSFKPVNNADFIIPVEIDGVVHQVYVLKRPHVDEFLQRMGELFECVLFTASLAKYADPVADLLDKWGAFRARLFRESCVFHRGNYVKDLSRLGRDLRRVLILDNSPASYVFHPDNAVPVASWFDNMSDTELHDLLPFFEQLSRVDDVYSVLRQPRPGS

[2] = target: Beta-adrenergic receptor kinase 1 (Homo sapiens, UniProt P25098); assay: aptamer displacement from bead-bound GRK2 – biochemical, cherry pick 1, bead flow cytometry, dose response (AID 504500)
[3] = HepG2 cell cytotoxicity, dose response, cytotoxicity control, ATP luminescence, cherry-pick, activator set 2 (AID 1053143); type: functional, cell-based
[4] = target: Neurotensin receptor type 1 (Homo sapiens, UniProt P30989); type: functional;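 further: Image-based confirmatory dose-response assay measuring agonist activity at NTR1; NTR1-expressing U2OS osteosarcoma cells imaged for beta-arrestin GFP spot formation; agonist potency where compounds increase beta-arrestin recruitment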
[5] = Luminescence Cell-Based Dose Retest to Confirm Inhibitors of Cancer Stem Cells. [Related pubchem assays (depositor defined):AID2717, AID2721]; type: functional; conditions: Homo sapiens
[6] = viability loss in Mcl1-dependent HMC-1-8 cells, dose response, selectivity assay for A1 inhibitor project, cell-based, luminescence, dry powder (AID 504415); type: functional; conditions: Homo sapiens

Caspase-8, sequence (Q14790 217-374 limits assumed): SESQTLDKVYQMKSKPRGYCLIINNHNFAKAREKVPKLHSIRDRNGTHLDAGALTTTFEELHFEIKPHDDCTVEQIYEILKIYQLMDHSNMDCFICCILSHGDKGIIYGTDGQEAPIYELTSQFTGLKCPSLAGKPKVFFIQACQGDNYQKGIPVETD
Caspase-8, sequence (Q14790 385-479 limits assumed): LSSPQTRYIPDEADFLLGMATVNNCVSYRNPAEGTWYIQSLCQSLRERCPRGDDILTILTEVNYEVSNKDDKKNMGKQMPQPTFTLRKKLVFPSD
Beta-adrenergic receptor kinase 1, sequence (P25098 whole entry): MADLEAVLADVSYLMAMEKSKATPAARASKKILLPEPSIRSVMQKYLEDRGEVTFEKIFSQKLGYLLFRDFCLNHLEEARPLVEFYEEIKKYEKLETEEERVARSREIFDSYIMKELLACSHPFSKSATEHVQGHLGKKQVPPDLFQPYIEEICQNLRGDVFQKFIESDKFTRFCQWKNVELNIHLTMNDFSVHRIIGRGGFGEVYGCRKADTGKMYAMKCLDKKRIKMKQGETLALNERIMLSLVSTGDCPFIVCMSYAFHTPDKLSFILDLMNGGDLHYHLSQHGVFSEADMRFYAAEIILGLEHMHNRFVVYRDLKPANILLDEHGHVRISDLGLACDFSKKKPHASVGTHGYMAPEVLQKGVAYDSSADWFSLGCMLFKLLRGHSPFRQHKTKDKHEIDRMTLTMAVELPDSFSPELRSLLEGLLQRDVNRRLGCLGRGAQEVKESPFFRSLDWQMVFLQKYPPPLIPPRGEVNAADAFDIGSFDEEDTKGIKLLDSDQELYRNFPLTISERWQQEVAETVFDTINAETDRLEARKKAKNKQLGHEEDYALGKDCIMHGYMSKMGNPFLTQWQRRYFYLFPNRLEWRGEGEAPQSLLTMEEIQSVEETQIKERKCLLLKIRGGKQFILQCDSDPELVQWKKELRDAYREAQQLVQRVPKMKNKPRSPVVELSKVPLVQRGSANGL
Caspase-7, sequence (P55210 24-198 limits assumed): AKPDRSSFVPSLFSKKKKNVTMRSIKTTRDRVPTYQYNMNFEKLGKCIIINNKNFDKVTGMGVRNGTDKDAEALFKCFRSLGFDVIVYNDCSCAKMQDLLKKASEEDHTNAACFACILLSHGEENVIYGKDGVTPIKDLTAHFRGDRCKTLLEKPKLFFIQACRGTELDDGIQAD
Caspase-7, sequence (P55210 207-303 limits assumed): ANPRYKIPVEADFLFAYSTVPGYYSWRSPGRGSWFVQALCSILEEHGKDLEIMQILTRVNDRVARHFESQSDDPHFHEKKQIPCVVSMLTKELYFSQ
Neurotensin receptor type 1, sequence (P30989 whole entry): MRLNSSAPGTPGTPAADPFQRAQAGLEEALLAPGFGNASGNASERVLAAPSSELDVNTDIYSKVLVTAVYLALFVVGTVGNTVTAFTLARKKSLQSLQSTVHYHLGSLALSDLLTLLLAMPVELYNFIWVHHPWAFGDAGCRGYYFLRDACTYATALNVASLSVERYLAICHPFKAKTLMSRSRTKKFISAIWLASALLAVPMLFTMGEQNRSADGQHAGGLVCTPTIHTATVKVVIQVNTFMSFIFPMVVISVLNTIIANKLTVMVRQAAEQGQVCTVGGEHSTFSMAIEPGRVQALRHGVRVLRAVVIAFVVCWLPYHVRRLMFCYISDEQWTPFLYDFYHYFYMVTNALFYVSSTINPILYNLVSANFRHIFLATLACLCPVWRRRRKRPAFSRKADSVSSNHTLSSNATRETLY

| AC50 (Caspase-7) | AC50 (Caspase-6) | AC50 (Caspase-8) | IC50 [1] | EC50 [2] | SMILES | AC50 [3] | EC50 [4] | AC50 [5] | AC50 [6] |
| --- | --- | --- | --- | --- | --- | --- | --- | --- | --- |
| > 70 µM (inactive) | 3.75 µM (active) | 58.8 µM (active) | 6.44 µM (active) | 0.72 µM (active) | CCCN(C(=O)c1cccc(-n2cccc2)c1)c1c(N)n(Cc2ccccc2)c(=O)[nH]c1=O | – | – | – | – |
| – | – | – | – | – | Cc1ccc(Sc2c([N+](=O)[O-])c(=O)n(C)c3ccccc23)cc1 | 26 µM (active) | 26 µM (inactive) | 3.18 µM (active) | 19.3 µM (active) |
